Results as given in article PMC9917184, “Synthesis and Biological Evaluation of Potential Oncoimmunomodulator Agents” (International Journal of Molecular Sciences, 2023).
Like-named read-outs stand apart in the source and are kept apart here.

What was measured:
c-Myc gene expression = c-Myc gene expression by RT-qPCR in MCF-7; assay type: cell-based, human; settings: MCF-7, 100 µM, 48 h, control = 100
Method: We also studied the effect of compounds 3, 5, and 7 on both c-Myc and PD-L1 gene expression by RT-qPCR. For this study, we treated MCF-7 cells with 100 µM of the abovementioned compounds, and DMSO was used as a negative control and BMS-8 as a reference compound. After 48 h, cells were lysated, and after the extraction of their mRNA, a RT-pPCR assay was performed as described in the Experimental section.
MCF-7 cells at 70–80% confluence were collected, and 1.5 × 10^5 cells were placed in a six-well plate in 1.5 mL of medium. After 24h, cells were incubated with the corresponding compounds for 48 h. Cells were collected, and the total cellular RNA from MCF-7 cells was isolated using the Ambion RNA extraction kit according to the manufacturer’s instructions. The cDNA was synthesized by MMLV-RT with […] of extracted RNA and oligo(dT)15 according to the manufacturer’s instructions. Genes were amplified by a thermal cycler and StepOnePlus™ TaqMan® probes. TaqMan® Gene Expression Master Mix Fast containing the appropriate buffer for the amplification conditions, dNTPs, thermostable DNA polymerase enzymes, and a passive reference probe was used. To amplify each of the genes, the predesigned primers sold by Life Technologies TaqMan® Gene Expression Assays, Hs99999903-m1 (β-actin), Hs00153408-m1 (c-Myc), and Hs00204257-m1, (PD-L1) were used.

HT-29 = HT-29 cell viability in co-culture with Jurkat T cells (flow cytometry count); assay type: cell-based, human; settings: 24 h; for viability at 100 µM: Homo sapiens, HT-29/Jurkat T co-culture, IFN-γ stimulated, read-out: percentage of living HT-29 cells relative to non-treated co-cultures
Method: (§1) The effect of the synthesized compounds on tumor cell proliferation in the presence of PD-1-expressing Jurkat T cells was also studied. This assay was carried out, as in the previous experiments, in the HT29, MCF7, and A549 cell lines (see Table 4). Interferon γ-stimulated cancer cells were treated for 24 h with the compounds at 100 μM in presence of Jurkat T cells. Then, cells were counted using flow cytometry. The percentage of living cells relative to non-treated co-cultures (control) was established for both cancer and immune cells in every co-culture.
(§2) To study the effect of the compounds on the cell viability in co-culture with Jurkat T cells or THP-1 cells, 10^5 or 2 × 10^5 of the corresponding cancer cells line per well were seeded and incubated for 24 h, then the medium was changed by one cell culture medium supplemented with IFN-γ (10 ng/mL; human, Invitrogen®) and containing 5 × 10^5 or 10^5 Jurkat T cells or THP-1, respectively, per well and 100 µM of the corresponding compound or DMSO for the […] control. After 24 h/48 h of incubation, supernatants were collected to determine Jurkat T or THP-1 living cells, and on the other hand, corresponding cancer cells were collected with trypsin. Both types of suspension cells were fixed with 4% in PBS paraformaldehyde and counted by flow cytometry.

MCF-7 [1] = test: MCF-7 cell viability in co-culture with Jurkat T cells (flow cytometry count); assay type: cell-based, human; settings: 24 h; for viability at 100 µM: Homo sapiens, MCF7, MCF-7/Jurkat T co-culture, IFN-γ stimulated, read-out: percentage of living MCF-7 cells relative to non-treated co-cultures; for inhibition rate of MCF-7 cell viability: co-cultured with Jurkat T cells, 100 μM
Method: as §1, §2

membrane PD-L1 = biological target: T1, membrane PD-L1 (Homo sapiens, UniProt Q9NZQ7); test: Membrane PD-L1 relative quantification by flow cytometry in cancer cells co-cultured with Jurkat T cells; assay type: cell-based; settings: 24 h; for remaining activity at 100 µM / inhibition at 100 µM: Jurkat; for remaining activity at 100 µM: relative to non-treated co-cultures, read-out: % PDL1 (membrane); for inhibition at 100 µM: read-out: membrane PD-L1 inhibition rate
T1 construct: Alexa Fluor® 647 Rabbit monoclonal Anti-PD-L1 (ab215251); endogenous in cells; host or cells: HT-29, MCF-7, A-549 (A17: MCF-7 only; A14: IFN-gamma-stimulated cancer cells co-cultured with Jurkat T cells)
Method: We determined by flow cytometry the effect of these compounds on the expression of membrane PD-L1 in cancer cells when they were co-cultured with immune cells. Thus, interferon γ-stimulated cancer cells were treated for 24 h with the compounds at 100 μM in presence of Jurkat T cells. Then, cells were fixed and treated with anti-PD-L1 conjugated to AlexaFluor®647. We took advantage of the versatility of flow cytometry to simultaneously measure the expression of membrane VEGFR-2 by using anti-VEGFR-2 conjugated to fluorescein.
To study the effect of the compounds on every biological target in co-cultured cancer cell lines, the compounds were incubated for 24h as described before.
To detect membrane PD-L1 and VEGFR-2, after the cell treatments, they were collected, fixed with 4% in PBS paraformaldehyde, and stained with FITC Mouse monoclonal Anti-Human VEGFR-2 (ab184903) and Alexa Fluor® 647 Rabbit monoclonal Anti-PD-L1 (ab215251).

MCF-7 [2] = test: MCF-7 cell viability in co-culture with THP-1 cells; assay type: cell-based, human; settings: for viability at 100 µM / inhibition at 100 µM: Homo sapiens; for viability at 100 µM: read-out: cancer cell viability (MCF-7); for inhibition at 100 µM: MCF7, read-out: cancer cell inhibition (MCF-7)
Method: The effect of the synthesized compounds on tumor cell proliferation in the presence of human monocytic leukemia cell line THP-1 was also studied. This assay was carried out using MCF-7 as the cancer cell line and different proportions of immune cells. Standard proportions for this assay were 1:5 cancer/immune, and we also carried out this assay using a 2:1 proportion of cancer cells as regards immune THP-1 cells. Assays were performed after 24 and 48 h of treatment and using 100 μM doses of selected compounds.
as §2

[3] = A549 co-cultured with Jurkat T cells
[4] = HT29 co-cultured with Jurkat T cells
[5] = MCF7 co-cultured with Jurkat T cells
[6] = MCF7, 24 h, 1:5 MCF-7/THP-1, 100 μM, 24 h, control = 100
[7] = MCF7, 24 h, 2:1 MCF-7/THP-1, 100 μM, 24 h, control = 100
[8] = MCF7, 48 h, 1:5 MCF-7/THP-1, 100 μM, 48 h, control = 100
[9] = MCF7, 48 h, 2:1 MCF-7/THP-1, 100 μM, 48 h, control = 100
[10] = MCF-7 co-cultured with Jurkat T cells

T1 sequence (Q9NZQ7 19-290): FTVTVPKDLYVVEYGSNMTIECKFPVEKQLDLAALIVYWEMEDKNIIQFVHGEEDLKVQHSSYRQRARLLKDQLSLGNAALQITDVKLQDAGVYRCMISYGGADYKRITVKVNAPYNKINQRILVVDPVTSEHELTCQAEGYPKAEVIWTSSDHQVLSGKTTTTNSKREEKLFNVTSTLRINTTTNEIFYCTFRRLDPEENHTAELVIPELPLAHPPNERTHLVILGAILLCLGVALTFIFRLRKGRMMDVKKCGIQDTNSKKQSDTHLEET

remaining activity at 100 µM (membrane PD-L1; [3]) | remaining activity at 100 µM (membrane PD-L1; [4]) | remaining activity at 100 µM (membrane PD-L1; [5]) | inhibition at 100 µM (membrane PD-L1; A-549 co-cultured with Jurkat T cells) | inhibition at 100 µM (membrane PD-L1; HT-29 co-cultured with Jurkat T cells) | inhibition at 100 µM (membrane PD-L1; [10]) | membrane PD-L1 inhibition rate (membrane PD-L1; MCF-7 co-cultured with Jurkat T cells, 100 μM) | Structure (SMILES) | % c-Myc gene expression (c-Myc gene expression) | viability at 100 µM (HT-29) | viability at 100 µM (MCF-7 [1]) | viability at 100 µM (MCF-7 [2]; [6]) | viability at 100 µM (MCF-7 [2]; [7]) | viability at 100 µM (MCF-7 [2]; [8]) | viability at 100 µM (MCF-7 [2]; [9]) | inhibition rate of HT-29 cell viability (HT-29; co-cultured with Jurkat T cells, 100 μM) | inhibition rate of MCF-7 cell viability (MCF-7 [1]) | cancer cell viability (MCF-7) (MCF-7 [2]; 1:5 MCF-7/THP-1, 100 μM, 24 h, control = 100, 100 µM) | inhibition at 100 µM (MCF-7 [2]; 2:1 MCF-7/THP-1, 100 μM, 48 h)
103 ± 3% | 105 ± 3% | 97 ± 33% |  |  |  |  | Cc1c(COc2ccc(CN3CCCCC3C(=O)O)cc2Br)cccc1-c1ccccc1 (centres unmarked) [BMS-8, reference compound] | 30 ± 10% | 34 ± 5% | 57 ± 7% | 91 ± 30% | 100 ± 4% | 42 ± 5% | 58 ± 10% |  |  |  | 
77 ± 4% | 80 ± 2% | 52 ± 9% | ~20% | ~20% | 60 to 70% | half | COc1ccc(C(OCCc2ccc(CCn3cc(-c4ccc(Br)cc4)nn3)cc2)(c2ccccc2)c2ccc(OC)cc2)cc1 [Compound 3, 1-(4-(2-(bis(4-methoxyphenyl)(phenyl)methoxy)ethyl)phenethyl)-4-(4-bromophenyl)-1H-1,2,3-triazole] | 50 ± 7% | 111 ± 5% | 45 ± 4% | 50% | 83 ± 9% | 28 ± 2% | 51 ± 17% | not active | around 60% | 52 ± 7% | 50%
115% | 153 ± 17% | 43 ± 6% |  |  | 60 to 70% |  | COc1ccc(C(OCCc2ccc(CCn3cc(-c4cccc(Br)c4)nn3)cc2)(c2ccccc2)c2ccc(OC)cc2)cc1 [Compound 5, 1-(4-(2-(bis(4-methoxyphenyl)(phenyl)methoxy)ethyl)phenethyl)-4-(3-bromophenyl)-1H-1,2,3-triazole] | 33 ± 5% | 68 ± 3% | 37 ± 5% | 52 ± 4% | 107 ± 3% | 42 ± 10% | 69 ± 10% |  |  |  | 30%
73 ± 6% | 89 ± 4% | 50 ± 14% |  |  | 60 to 70% |  | COc1ccc(C(OCCc2ccc(CCn3cc(-c4ccccc4Br)nn3)cc2)(c2ccccc2)c2ccc(OC)cc2)cc1 [Compound 7, 1-(4-(2-(bis(4-methoxyphenyl)(phenyl)methoxy)ethyl)phenethyl)-4-(2-bromophenyl)-1H-1,2,3-triazole] | 12 ± 5% | 52 ± 6% | 41 ± 4% | 42 ± 10% | 92 ± 11% | 41 ± 10% | 60 ± 13% |  | around 60% |  | 40%
